Laboratory results from patent US20250382332A1, “NOVEL ALPHA-FACTOR BASED PEPTIDES WITH ANTIFUNGAL ACTIVITY” (INVAIO SCIENCES, INC., priority 2024, published 2025).
Peptide text beside a SMILES is read from it.

Tested on: Botrytis cinerea (B05.10)
Assay: Resazurin antifungal assay of 180 alpha-factor peptide variants towards Botrytis (Example 2)
Type: cell-based
Settings: % inhibition of fungal growth, Botrytis conidia, resazurin; for Inhibition at 50 μM: peptide 50 μM; for Inhibition at 100 μM: peptide 100 μM
Method in brief: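 B. cinerea B05.10 conidia (5000/well) were exposed to peptides at 100, 50, 20, 15 and 10 μM final for 24 h at 20° C. Resazurin was then added and fluorescence read at 570/620 nm. Percent growth inhibition was calculated against conidia-only wells, with four technical replicates.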

Row | SMILES | Inhibition at 50 μM | Inhibition at 100 μM
1 | CSCC[C@H](NC(=O)[C@@H]1CCCN1C(=O)[C@H](CCC(=O)O)NC(=O)CNC(=O)[C@@H](NC(=O)CNC(=O)[C@H](CC(C)C)NC(=O)[C@H](CCCCN)NC(=O)[C@H](CC(C)C)NC(=O)[C@H](Cc1c[nH]c2ccccc12)NC(=O)[C@H](Cc1c[nH]cn1)NC(=O)[C@@H](N)Cc1c[nH]c2ccccc12)[C@@H](C)O)C(=O)N[C@@H](Cc1ccc(O)cc1)C(=O)O [compound 119] (H-WHWLKLGTGEPMY-OH; N-terminus and C-terminus assumed) | <90% | 98.65%
2 | CC[C@H](C)[C@H](NC(=O)[C@H](CCC(N)=O)NC(=O)CNC(=O)[C@H](CCSC)NC(=O)[C@H](CO)NC(=O)[C@@H](N)Cc1c[nH]c2ccccc12)C(=O)N[C@@H](CCCCN)C(=O)N1CCC[C@H]1C(=O)NCC(=O)N[C@@H](CO)C(=O)N1CCC[C@H]1C(=O)N[C@@H](CCSC)C(=O)N[C@@H](Cc1ccc(O)cc1)C(=O)O [compound 120] (H-WSMGQIKPGSPMY-OH; N-terminus and C-terminus assumed) | <90% | <90%
3 | CC[C@H](C)[C@H](NC(=O)[C@H](CCC(N)=O)NC(=O)[C@H](CC(C)C)NC(=O)CNC(=O)[C@H](CO)NC(=O)[C@@H]1CCCN1)C(=O)N[C@@H](CCCCN)C(=O)N[C@H](C(=O)NCC(=O)N[C@@H](CCC(N)=O)C(=O)N1CCC[C@H]1C(=O)N[C@@H](CCSC)C(=O)N[C@@H](Cc1ccc(O)cc1)C(=O)O)C(C)C [compound 121] (H-PSGLQIKVGQPMY-OH; N-terminus and C-terminus assumed) | <90% | <90%
4 | CSCC[C@H](NC(=O)[C@H](CO)NC(=O)[C@H](CO)NC(=O)CNC(=O)[C@@H]1CCCN1C(=O)[C@H](CCCCN)NC(=O)[C@H](CC(C)C)NC(=O)[C@H](CO)NC(=O)[C@H](CC(C)C)NC(=O)[C@H](Cc1c[nH]c2ccccc12)NC(=O)[C@H](CCC(=O)O)NC(=O)[C@@H]1CCCN1)C(=O)N[C@@H](Cc1ccc(O)cc1)C(=O)O [compound 122] (H-PEWLSLKPGSSMY-OH; N-terminus and C-terminus assumed) | <90% | <90%
5 | CSCC[C@H](NC(=O)CNC(=O)[C@H](CCC(N)=O)NC(=O)CNC(=O)[C@H](Cc1ccc(O)cc1)NC(=O)[C@H](CCCCN)NC(=O)[C@H](CC(C)C)NC(=O)[C@H](CCC(N)=O)NC(=O)[C@@H](NC(=O)[C@H](Cc1c[nH]c2ccccc12)NC(=O)[C@H](CCC(N)=O)NC(=O)[C@@H](N)CCCCN)C(C)C)C(=O)N[C@@H](Cc1ccc(O)cc1)C(=O)O [compound 123] (H-KQWVQLKYGQGMY-OH; N-terminus and C-terminus assumed) | <90% | 100%
6 | CC[C@H](C)[C@H](NC(=O)CNC(=O)[C@H](Cc1c[nH]cn1)NC(=O)[C@@H](N)Cc1c[nH]c2ccccc12)C(=O)N[C@@H](CCC(N)=O)C(=O)N[C@@H](CC(C)C)C(=O)N[C@@H](Cc1ccccc1)C(=O)N[C@@H](CCCCN)C(=O)NCC(=O)N[C@@H](CCC(N)=O)C(=O)N1CCC[C@H]1C(=O)N[C@@H](CCSC)C(=O)N[C@@H](Cc1ccc(O)cc1)C(=O)O [compound 124] (H-WHGIQLFKGQPMY-OH; N-terminus and C-terminus assumed) | <90% | 100%
7 | CSCC[C@H](NC(=O)[C@@H]1CCCN1C(=O)[C@H](CCC(N)=O)NC(=O)CNC(=O)[C@@H]1CCCN1C(=O)[C@H](Cc1ccc(O)cc1)NC(=O)[C@H](CC(C)C)NC(=O)[C@H](CCC(N)=O)NC(=O)[C@@H](NC(=O)[C@H](Cc1c[nH]c2ccccc12)NC(=O)[C@H](CCC(=O)O)NC(=O)[C@@H](N)CCCCN)C(C)C)C(=O)N[C@@H](Cc1ccc(O)cc1)C(=O)O [compound 125] (H-KEWVQLYPGQPMY-OH; N-terminus and C-terminus assumed) | <90% | <90%
8 | CSCC[C@H](NC(=O)CNC(=O)[C@H](CCC(N)=O)NC(=O)CNC(=O)[C@@H]1CCCN1C(=O)[C@H](CCCCN)NC(=O)[C@H](Cc1ccccc1)NC(=O)[C@H](CCC(=O)O)NC(=O)[C@H](CC(C)C)NC(=O)[C@H](CC(=O)O)NC(=O)[C@H](Cc1c[nH]cn1)NC(=O)[C@@H]1CCCN1)C(=O)N[C@@H](Cc1ccc(O)cc1)C(=O)O [compound 126] (H-PHDLEFKPGQGMY-OH; N-terminus and C-terminus assumed) | <90% | <90%
9 | CC[C@H](C)[C@H](NC(=O)[C@H](CO)NC(=O)[C@H](CCCCN)NC(=O)[C@@H](N)Cc1c[nH]c2ccccc12)C(=O)N[C@@H](CC(N)=O)C(=O)N[C@@H](Cc1ccccc1)C(=O)N[C@@H](CCCCN)C(=O)N1CCC[C@H]1C(=O)NCC(=O)N[C@@H](CCC(N)=O)C(=O)N1CCC[C@H]1C(=O)N[C@@H](CCSC)C(=O)N[C@@H](Cc1ccc(O)cc1)C(=O)O [compound 127] (H-WKSINFKPGQPMY-OH; N-terminus and C-terminus assumed) | <90% | <90%
10 | CSCC[C@H](NC(=O)[C@@H]1CCCN1C(=O)[C@H](CCC(N)=O)NC(=O)CNC(=O)[C@@H]1CCCN1C(=O)[C@H](CC(=O)O)NC(=O)[C@H](Cc1ccccc1)NC(=O)[C@H](CCC(=O)O)NC(=O)[C@@H](NC(=O)[C@H](Cc1c[nH]c2ccccc12)NC(=O)[C@H](Cc1c[nH]cn1)NC(=O)[C@@H]1CCCN1)C(C)C)C(=O)N[C@@H](Cc1ccc(O)cc1)C(=O)O [compound 128] (H-PHWVEFDPGQPMY-OH; N-terminus and C-terminus assumed) | <90% | <90%
11 | CSCC[C@H](NC(=O)[C@@H]1CCCN1C(=O)[C@H](CCC(N)=O)NC(=O)CNC(=O)[C@@H]1CCCN1C(=O)[C@H](Cc1c[nH]cn1)NC(=O)[C@H](CC(C)C)NC(=O)[C@H](CCC(=O)O)NC(=O)[C@H](CC(C)C)NC(=O)CNC(=O)[C@H](CCC(N)=O)NC(=O)[C@@H](N)Cc1c[nH]c2ccccc12)C(=O)N[C@@H](Cc1ccc(O)cc1)C(=O)O [compound 129] (H-WQGLELHPGQPMY-OH; N-terminus and C-terminus assumed) | <90% | <90%
12 | CSCC[C@H](NC(=O)[C@@H]1CCCN1C(=O)[C@H](CO)NC(=O)CNC(=O)[C@@H]1CCCN1C(=O)[C@H](CCCCN)NC(=O)[C@H](CC(C)C)NC(=O)[C@@H](NC(=O)[C@H](CC(C)C)NC(=O)[C@@H](NC(=O)[C@H](CCC(=O)O)NC(=O)[C@@H](N)Cc1c[nH]c2ccccc12)C(C)C)[C@@H](C)O)C(=O)N[C@@H](Cc1ccc(O)cc1)C(=O)O [compound 130] (H-WEVLTLKPGSPMY-OH; N-terminus and C-terminus assumed) | <90% | <90%
13 | CC[C@H](C)[C@H](NC(=O)[C@H](CC(C)C)NC(=O)[C@H](Cc1c[nH]cn1)NC(=O)[C@@H]1CCCN1)C(=O)N[C@@H](CCC(N)=O)C(=O)N[C@@H](CC(C)C)C(=O)NCC(=O)N[C@@H](CC(C)C)C(=O)NCC(=O)N[C@@H](CCC(N)=O)C(=O)N1CCC[C@H]1C(=O)N[C@@H](CCSC)C(=O)N[C@@H](Cc1ccc(O)cc1)C(=O)O [compound 131] (H-PHLIQLGLGQPMY-OH; N-terminus and C-terminus assumed) | <90% | <90%
14 | CSCC[C@H](NC(=O)[C@H](Cc1c[nH]cn1)NC(=O)[C@@H]1CCCN1)C(=O)N[C@H](C(=O)N[C@@H](CCCNC(=N)N)C(=O)N[C@@H](CC(C)C)C(=O)N[C@@H](CCCCN)C(=O)N1CCC[C@H]1C(=O)NCC(=O)N[C@@H](CCC(N)=O)C(=O)N1CCC[C@H]1C(=O)N[C@@H](CCSC)C(=O)N[C@@H](Cc1ccc(O)cc1)C(=O)O)C(C)C [compound 132] (H-PHMVRLKPGQPMY-OH; N-terminus and C-terminus assumed) | <90% | 94.13%
15 | CC[C@H](C)[C@H](NC(=O)[C@H](CC(C)C)NC(=O)[C@H](CCC(N)=O)NC(=O)CNC(=O)[C@H](Cc1c[nH]c2ccccc12)NC(=O)CNC(=O)[C@@H](N)CCCCN)C(=O)N1CCC[C@H]1C(=O)NCC(=O)N[C@@H](CCC(=O)O)C(=O)N1CCC[C@H]1C(=O)N[C@@H](CCSC)C(=O)N[C@@H](Cc1ccc(O)cc1)C(=O)O [compound 133] (H-KGWGQLIPGEPMY-OH; N-terminus and C-terminus assumed) | <90% | <90%
16 | CSCC[C@H](NC(=O)[C@@H]1CCCN1C(=O)[C@H](CCC(N)=O)NC(=O)CNC(=O)[C@@H]1CCCN1C(=O)[C@H](CCCCN)NC(=O)[C@H](CC(C)C)NC(=O)[C@H](CCCCN)NC(=O)[C@H](CC(C)C)NC(=O)[C@H](CC(=O)O)NC(=O)CNC(=O)[C@@H](N)Cc1c[nH]c2ccccc12)C(=O)N[C@@H](Cc1ccc(O)cc1)C(=O)O [compound 134] (H-WGDLKLKPGQPMY-OH; N-terminus and C-terminus assumed) | <90% | <90%
17 | CSCC[C@H](NC(=O)[C@@H]1CCCN1C(=O)[C@H](CCC(=O)O)NC(=O)CNC(=O)[C@H](CCCNC(=N)N)NC(=O)[C@H](CCC(N)=O)NC(=O)[C@H](CC(C)C)NC(=O)[C@H](CCC(N)=O)NC(=O)CNC(=O)[C@H](Cc1c[nH]c2ccccc12)NC(=O)[C@H](Cc1c[nH]cn1)NC(=O)[C@@H](N)Cc1c[nH]c2ccccc12)C(=O)N[C@@H](Cc1ccc(O)cc1)C(=O)O [compound 135] (H-WHWGQLQRGEPMY-OH; N-terminus and C-terminus assumed) | <90% | <90%
18 | CSCC[C@H](NC(=O)[C@@H]1CCCN1C(=O)[C@H](CCC(=O)O)NC(=O)CNC(=O)[C@@H]1CCCN1C(=O)[C@H](CCCCN)NC(=O)[C@H](CC(C)C)NC(=O)[C@H](CCCCN)NC(=O)[C@H](CC(C)C)NC(=O)[C@H](Cc1c[nH]c2ccccc12)NC(=O)[C@H](Cc1c[nH]cn1)NC(=O)[C@@H]1CCCN1)C(=O)N[C@@H](Cc1ccc(O)cc1)C(=O)O [compound 136] (H-PHWLKLKPGEPMY-OH; N-terminus and C-terminus assumed) | <90% | <90%
